Data from US7803554B2, “Detection of binding factors with fluorescence polarization” (priority 2000, dated 2010).

Assays:
[1] = test system: mouse monoclonal antibody 8E11; test: CE/LIF binding stoichiometry of TMR-BPDE oligonucleotides with antibody; conditions: 24 nM oligonucleotide
Method: The separation was carried out at room temperature with a separation voltage of 15 kV. The running buffer were either 1× tris-glycine (25 mM Tris, 192 mM glycine, pH 8.3) or 0.5× tris-glycine (12.5 mM tris and 96 mM glycine, pH 8.3). The capillary was washed approximately every 3 injections with 0.02 M NaOH electrophoretically at 15 kV for 7 min followed by electrophoresis using water and the running buffer for 7 min each. All capillary electrophoresis data were analyzed using Igor Pro software (version 3.1, WaveMetrics Inc., Lake Oswego, Oreg.).
Complex formation of TMR-labeled BPDE-DNA adducts and antibody: TMR-BPDE-16-mer and TMR-BPDE-90-mer samples were diluted to appropriate concentrations in running buffer (tris-glycine, pH 8.3). The double stranded BPDE-90-mer was denatured by heating at 95° C. for 5 min in a heating block. It was then placed on ice to prevent reannealing. After cooling, the samples were briefly centrifuged in a microcentrifuge (Z233M, Hermle) to collect condensation from the side of the tube, then gently mixed to ensure a homogenous solution. TMR-BPDE-16-mer was synthesized as a single-stranded oligonucleotide. […] After addition of antibody to the BPDE-oligonucleotide solutions, the samples were gently vortexed to ensure complete mixing and incubated at the room temperature for 5-10 min, then analyzed by CE/LIF. […]

SSB = SSB (Escherichia coli, UniProt P0AGE0); conditions: fluorescence quenching methods; Molineux 1975, Krauss 1981; cited from earlier work
[2] = test system: mouse monoclonal antibody 8E11; test: CE/LIF competitive binding of unlabeled BPDE-16-mer and TMR-BPDE-16-mer to antibody; conditions: 9.6 nM 16mer*, 33 nM antibody
Method: Simultaneous binding of two BPDE-DNA adducts to the antibody: Both TMR-labeled and unlabeled BPDE-adducts were allowed to bind with the antibody. The freshly diluted BPDE-16-mer (16mer) and TMR-BPDE-16-mer (16mer*) solutions were mixed together before addition of the antibody. Concentrations of the TMR-BPDE-16-mer and the antibody were kept constant at 9.6 nM and 33.3 nM, respectively, and the unlabeled BPDE-16-mer was varied from 2.5 nM to […]. The sample mixtures were incubated for 5 min at room temperature, then analyzed by CE/LIF. Similarly, the antibody was added to mixtures of the TMR-BPDE-16mer and BPDE-90mer to study the competitive binding and ligand exchange.
The relative changes of the primary and secondary complexes with varying concentrations of unlabeled 16mer when it is incubated with 9.6 nM TMR-labeled 16mer* and 33 nM (5 μg/mL) antibody were measured. When the concentration of the unlabeled 16mer is below 10 nM, the primary complex [Ab(16mer*)] dominates and its amount remains almost constant with increasing concentration of the unlabeled 16 mer up to 10 nM. The total ligand concentration (16mer* and 16mer) is lower compared with that of the antibody, and there are excess antibody binding sites available. Thus, no significant competition between the two ligands takes place. […]

SSB, sequence (P0AGE0 2-178 limits assumed): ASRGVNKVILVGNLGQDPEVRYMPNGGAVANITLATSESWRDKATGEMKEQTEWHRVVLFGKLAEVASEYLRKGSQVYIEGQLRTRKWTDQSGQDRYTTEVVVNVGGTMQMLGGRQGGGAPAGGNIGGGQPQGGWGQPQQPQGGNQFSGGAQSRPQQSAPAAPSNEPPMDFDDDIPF

What does the source list for “16mer*: 5′-TMR-labeled 16-mer 5′-CCCATTATGCATAACC-3′ with a single BPDE adduct (single BPDE adduct, position not given here)”?
share of total oligonucleotide present as secondary complex (1:2) ([1]; antibody 1 μg/mL (maximum)): 50%; share of total oligonucleotide present as primary complex (1:1) with the antibody ([1]; antibody 8-16 μg/mL (50-100 nM)): 80-85%

Which “affinity of SSB” value (SSB) does the source give for d(pT)8 here?
The value was “about 2×10^6 M^−1”.

Which “affinity of SSB” value (SSB) does the source give for d(pT)16 here?
Its value is 1.4e+06 M⁻¹.

What does the source list for “unlabeled 16mer: unlabeled 16-mer 5′-CCCATTATGCATAACC-3′ with a BPDE adduct (chemistry not fully specified)”?
competitor concentration at which secondary complexes reach a maximum [2]: 100 nM; competitor concentration resulting in disappearance of the primary Ab(16mer*) complex [2]: above 250 nM
